# Measured values published in PubChem BioAssay (NCI).
#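 Five compound concentrations were applied to cells in 96-well plates for 48 hours; endpoints were derived by simple linear interpolation of the resulting dose-response curve. TGI is the concentration that stops growth completely.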
# Tests used:
# Assay in all cases: NCI tumour cell line growth inhibition, 48 h
# 786-0 renal = system: 786-0 renal
# A498 renal = system: A498 renal
# A549 NSCLC = system: A549 NSCLC
# ACHN renal = system: ACHN renal
# CAKI-1 renal = system: CAKI-1 renal
# CCRF-CEM leukemia = system: CCRF-CEM leukemia
# COLO 205 colon = system: COLO 205 colon
# DLD-1 colon = system: DLD-1 colon
# DMS 114 small cell lung = system: DMS 114 small cell lung
# DMS 273 small cell lung = system: DMS 273 small cell lung
# EKVX NSCLC = system: EKVX NSCLC
# HCC-2998 colon = system: HCC-2998 colon
# HCT-116 colon = system: HCT-116 colon
# HCT-15 colon = system: HCT-15 colon
# HL-60(TB) leukemia = system: HL-60(TB) leukemia
# HOP-18 NSCLC = system: HOP-18 NSCLC
# HOP-62 NSCLC = system: HOP-62 NSCLC
# HOP-92 NSCLC = system: HOP-92 NSCLC
# HT29 colon = system: HT29 colon
# IGROV1 ovarian = system: IGROV1 ovarian
# K-562 leukemia = system: K-562 leukemia
# KM12 colon = system: KM12 colon
# KM20L2 colon = system: KM20L2 colon
# LOX IMVI melanoma = system: LOX IMVI melanoma
# LXFL 529 NSCLC = system: LXFL 529 NSCLC
# M14 melanoma = system: M14 melanoma
# M19-MEL melanoma = system: M19-MEL melanoma
# MALME-3M melanoma = system: MALME-3M melanoma
# MCF7 breast = system: MCF7 breast
# MOLT-4 leukemia = system: MOLT-4 leukemia
# NCI-H226 lung = system: NCI-H226 lung
# NCI-H23 lung = system: NCI-H23 lung
# NCI-H460 lung = system: NCI-H460 lung
# NCI-H522 lung = system: NCI-H522 lung
# NCI/ADR-RES ovarian = system: NCI/ADR-RES ovarian
# OVCAR-3 ovarian = system: OVCAR-3 ovarian
# OVCAR-4 ovarian = system: OVCAR-4 ovarian
# OVCAR-5 ovarian = system: OVCAR-5 ovarian
# OVCAR-8 ovarian = system: OVCAR-8 ovarian
# RPMI-8226 leukemia = system: RPMI-8226 leukemia
# RXF 393 renal = system: RXF 393 renal
# RXF-631 renal = system: RXF-631 renal
# SF-268 CNS = system: SF-268 CNS
# SF-295 CNS = system: SF-295 CNS
# SF-539 CNS = system: SF-539 CNS
# SK-MEL-2 melanoma = system: SK-MEL-2 melanoma
# SK-MEL-28 melanoma = system: SK-MEL-28 melanoma
# SK-MEL-5 melanoma = system: SK-MEL-5 melanoma
# SK-OV-3 ovarian = system: SK-OV-3 ovarian
# SN12C renal = system: SN12C renal
# SN12K1 renal = system: SN12K1 renal
# SNB-19 CNS = system: SNB-19 CNS
# SNB-75 CNS = system: SNB-75 CNS
# SNB-78 CNS = system: SNB-78 CNS
# SW-620 colon = system: SW-620 colon
# TK-10 renal = system: TK-10 renal
# U251 CNS = system: U251 CNS
# UACC-257 melanoma = system: UACC-257 melanoma
# UACC-62 melanoma = system: UACC-62 melanoma
# UO-31 renal = system: UO-31 renal
# XF 498 CNS = system: XF 498 CNS
# SR leukemia = system: SR leukemia
smiles,measurement,setting,value
CN(C)CC1CC/C(=C\c2ccc(Cl)cc2)C1=O (stereo not given),TGI,786-0 renal,6.79 µM
same,TGI,A498 renal,24 µM
same,TGI,A549 NSCLC,42.1 µM
same,TGI,ACHN renal,25.7 µM
same,TGI,CAKI-1 renal,12.9 µM
same,TGI,CCRF-CEM leukemia,2.89 µM
same,TGI,COLO 205 colon,12 µM
same,TGI,DLD-1 colon,12.5 µM
same,TGI,DMS 114 small cell lung,20.7 µM
same,TGI,DMS 273 small cell lung,12.9 µM
same,TGI,EKVX NSCLC,30.1 µM
same,TGI,HCC-2998 colon,18.8 µM
same,TGI,HCT-116 colon,9.41 µM
same,TGI,HCT-15 colon,9.75 µM
same,TGI,HL-60(TB) leukemia,2.88 µM
same,TGI,HOP-18 NSCLC,34 µM
same,TGI,HOP-62 NSCLC,41.5 µM
same,TGI,HOP-92 NSCLC,22.5 µM
same,TGI,HT29 colon,23.7 µM
same,TGI,IGROV1 ovarian,31.1 µM
same,TGI,K-562 leukemia,4.46 µM
same,TGI,KM12 colon,13.7 µM
same,TGI,KM20L2 colon,29.7 µM
same,TGI,LOX IMVI melanoma,6.87 µM
same,TGI,LXFL 529 NSCLC,4.13 µM
same,TGI,M14 melanoma,22.5 µM
same,TGI,M19-MEL melanoma,10.7 µM
same,TGI,MALME-3M melanoma,15 µM
same,TGI,MCF7 breast,7.47 µM
same,TGI,MOLT-4 leukemia,2.75 µM
same,TGI,NCI-H226 lung,35.8 µM
same,TGI,NCI-H23 lung,21.8 µM
same,TGI,NCI-H460 lung,41.6 µM
same,TGI,NCI-H522 lung,6.94 µM
same,TGI,NCI/ADR-RES ovarian,16.1 µM
same,TGI,OVCAR-3 ovarian,18.7 µM
same,TGI,OVCAR-4 ovarian,29.1 µM
same,TGI,OVCAR-5 ovarian,34.3 µM
same,TGI,OVCAR-8 ovarian,12.8 µM
same,TGI,RPMI-8226 leukemia,2.41 µM
same,TGI,RXF 393 renal,8.66 µM
same,TGI,RXF-631 renal,38.1 µM
same,TGI,SF-268 CNS,19.9 µM
same,TGI,SF-295 CNS,35.5 µM
same,TGI,SF-539 CNS,27.3 µM
same,TGI,SK-MEL-2 melanoma,26.6 µM
same,TGI,SK-MEL-28 melanoma,10.4 µM
same,TGI,SK-MEL-5 melanoma,24.2 µM
same,TGI,SK-OV-3 ovarian,24.5 µM
same,TGI,SN12C renal,20.5 µM
same,TGI,SN12K1 renal,5.15 µM
same,TGI,SNB-19 CNS,30.1 µM
same,TGI,SNB-75 CNS,28.7 µM
same,TGI,SNB-78 CNS,40.4 µM
same,TGI,SW-620 colon,7.44 µM
same,TGI,TK-10 renal,21.7 µM
same,TGI,U251 CNS,14 µM
same,TGI,UACC-257 melanoma,21.3 µM
same,TGI,UACC-62 melanoma,21.7 µM
same,TGI,UO-31 renal,30.5 µM
same,TGI,XF 498 CNS,19.8 µM
Cc1ccccc1NC(=O)/C(=N/NC(=O)CC#N)C1C(=O)N(c2ccccc2)N=C1N (stereo not given),TGI,786-0 renal,> 100 µM
same,TGI,A498 renal,> 100 µM
same,TGI,A549 NSCLC,> 100 µM
same,TGI,ACHN renal,> 100 µM
same,TGI,CAKI-1 renal,> 100 µM
same,TGI,CCRF-CEM leukemia,88.9 µM
same,TGI,COLO 205 colon,> 100 µM
same,TGI,DLD-1 colon,> 100 µM
same,TGI,DMS 114 small cell lung,> 100 µM
same,TGI,DMS 273 small cell lung,> 100 µM
same,TGI,EKVX NSCLC,> 100 µM
same,TGI,HCC-2998 colon,> 100 µM
same,TGI,HCT-116 colon,> 100 µM
same,TGI,HCT-15 colon,> 100 µM
same,TGI,HL-60(TB) leukemia,> 100 µM
same,TGI,HOP-18 NSCLC,> 100 µM
same,TGI,HOP-62 NSCLC,> 100 µM
same,TGI,HOP-92 NSCLC,> 100 µM
same,TGI,HT29 colon,> 100 µM
same,TGI,IGROV1 ovarian,> 100 µM
same,TGI,K-562 leukemia,> 100 µM
same,TGI,KM12 colon,> 100 µM
same,TGI,KM20L2 colon,> 100 µM
same,TGI,LOX IMVI melanoma,> 100 µM
same,TGI,LXFL 529 NSCLC,> 100 µM
same,TGI,M14 melanoma,> 100 µM
same,TGI,M19-MEL melanoma,> 100 µM
same,TGI,MALME-3M melanoma,> 100 µM
same,TGI,MOLT-4 leukemia,> 100 µM
same,TGI,NCI-H226 lung,> 100 µM
same,TGI,NCI-H23 lung,> 100 µM
same,TGI,NCI-H460 lung,> 100 µM
same,TGI,NCI-H522 lung,> 100 µM
same,TGI,OVCAR-3 ovarian,> 100 µM
same,TGI,OVCAR-4 ovarian,> 100 µM
same,TGI,OVCAR-5 ovarian,> 100 µM
same,TGI,OVCAR-8 ovarian,> 100 µM
same,TGI,RPMI-8226 leukemia,> 100 µM
same,TGI,RXF 393 renal,> 100 µM
same,TGI,RXF-631 renal,> 100 µM
same,TGI,SF-268 CNS,> 100 µM
same,TGI,SF-295 CNS,> 100 µM
same,TGI,SF-539 CNS,> 100 µM
same,TGI,SK-MEL-2 melanoma,> 100 µM
same,TGI,SK-MEL-28 melanoma,> 100 µM
same,TGI,SK-MEL-5 melanoma,> 100 µM
same,TGI,SK-OV-3 ovarian,> 100 µM
same,TGI,SN12C renal,> 100 µM
same,TGI,SNB-19 CNS,> 100 µM
same,TGI,SNB-75 CNS,> 100 µM
same,TGI,SNB-78 CNS,> 100 µM
same,TGI,SR leukemia,> 100 µM
same,TGI,SW-620 colon,> 100 µM
same,TGI,TK-10 renal,> 100 µM
same,TGI,U251 CNS,> 100 µM
same,TGI,UACC-257 melanoma,> 100 µM
same,TGI,UACC-62 melanoma,> 100 µM
same,TGI,UO-31 renal,> 100 µM
same,TGI,XF 498 CNS,> 100 µM
